Measured values reported in PMC1978516, “The PDZ Domain as a Complex Adaptive System” (PLoS ONE, 2007).
Ends that are not written are not given here.

Legend:
[1] = tested on: PSD95-PDZ2; assay: peptide ELISA on immobilized GST-PDZ fusion; format: binding; conditions: Fig. 3
From the text: (§1) Figure 3 Binding of 126 proteomic fragments (natural ligands) to six PDZ domains of PSD95 and SAP97. Binding histograms were obtained by peptide ELISA performed on purified GST fusions of the indicated domains immobilized in micro-titer plate wells as described previously. The X axis indicates the i.d. numbers of natural ligands (see Table S2). The Y axis indicates the peptide ELISA kinetics slope value in arbitrary units (a.u.). The 127th and 128th wells in each of the six sets were loaded with irrelevant peptides to indicate background signal. To illustrate internal consistency of the affinity evaluations obtained by peptide ELISA and their external consistency with the previously published affinity measurements, the reported affinities of the five PDZ domain-ligand pairs obtained by three different research groups using fluorescence polarization, [18], [32] are shown.
(§2) Wells of microtiter plates were coated with 1 µg of the indicated GST-PDZ domain fusions, washed with TBS-T and blocked with 1% BSA in the same way as described above for phage ELISA. Individual biotinylated peptides (30 ng) were pre-incubated with 1 µg of streptavidin-HRP conjugate (Pierce) in 300 µl of TBS-T for 30 min at RT. One hundred µl of the peptide-streptavidin-HRP conjugate were added to 100 µl of TBS-T left in each coated well after the final wash of the protein immobilization/blocking procedure. Microtiter plates were incubated for 1 hour at RT, and then washed 5 (x1mL) times with TBS-T. The amounts of peptides retained were quantified colorimetrically by adding soluble HRP substrate (ABTS/H2O2) and measuring ELISA kinetic slopes. ELISA readings were taken on a SpectraMAX190 plate reader (Molecular Devices) at 405 nm. To ensure reproducibility, all peptide ELISA experiments presented were repeated at least three times in at least three separate experiments performed by two different experimenters.

[2] = tested on: PSD95-PDZ3; assay: peptide ELISA on immobilized GST-PDZ fusion; format: binding; conditions: Fig. 3
From the text: as §1, §2

[3] = tested on: SAP97-PDZ2; assay: peptide ELISA on immobilized GST-PDZ fusion; format: binding; conditions: Fig. 3
From the text: as §1, §2

[4] = tested on: first PSD95 PDZ domain; conditions: cited from earlier work
From the text: (§3) In order to gain insight into the pattern recognition differences of the PDZ domains that belong to the same class but are able to differentiate between peptide ligands sharing the class-defining C-terminal consensus, we investigated a particular case of this general puzzle, namely, the differences in recognition preferences between the second and third PDZ domains of PSD95, which are classified as type I PDZ domains but are known to discriminate between various X-(S/T)-X-(V/I/L)-COOH ligands, [18]. In Fig. 5A we compare two sets of C-terminal sequences. The first set represents the s ...

[5] = tested on: second PSD95 PDZ domain; conditions: cited from earlier work
From the text: as §3

[6] = tested on: third PSD95 PDZ domain; conditions: cited from earlier work
From the text: as §3

[7] = tested on: PSD95-PDZ3; assay: phage ELISA on immobilized GST-PDZ fusion; format: binding; conditions: Fig. 1 and not shown
Description: Binding histograms were obtained by individual phage ELISA performed on purified GST fusions of the indicated domains immobilized in micro-titer plate wells [40]. For accurate relative affinity evaluations and cross-domain comparison, the slopes of individual ELISA kinetics were determined and normalized by the highest slope value in each of the six sets shown. The 96th well in each set was loaded with a library aliquot to indicate background. Axis X indicates identification (i.d.) numbers of individual artificial ligands (see individual ligand sequences together with their i.d. numbers in Table S1). Axis Y indicates the normalized relative affinity. The domain organization of the PSD95 and SAP97 proteins is shown above histograms.
GST fusion-coated microtiter ELISA plates (COSTAR) were prepared by passive immobilization of 1 µg of the indicated GST fusion proteins (Fig. 1) per well in 200 µl of 0.1M NaHCO3, pH 8.0, overnight at 4°C. Following protein coating, plates were blocked by adding 150 µl of 1% BSA in TBS for 1 hour at RT. Following incubation, the wells with immobilized target proteins were washed 5 (x1ml) times with TBS-T. One hundred µl of freshly prepared individual phage lysate was added to the ELISA plate wells and incubated for 1 hour at RT. Following incubation, unbound phages were washed away with TBS-T and the amount of retained phages was determined with polyclonal T7 phage-specific antibodies followed by monoclonal anti-rabbit antibodies conjugated to horseradish peroxidase (HRP) (Amersham Pharmacia). The individual phage ELISA kinetics were followed and quantified colorimetrically using soluble HRP substrate (ABTS/H2O2). ELISA readings were taken on a SpectraMAX190 plate reader (Molecular Devices) at 405 nm. To ensure reproducibility, each of the individual phage ELISA binding histograms presented was obtained at least three times in at least three separate experiments performed by two different experimenters.

Question: With “ALPDGNIAESLESLV> [compound 018, N-terminally biotinylated 15-mer proteomic fragment, SWISS-PROT P23471, receptor-type tyrosine protein phosphatase zeta]” as the substance, how does the “binding to the second PDZ domain of PSD95” value [1] read?
Answer: bind to the second PDZ domains

Question: And the “binding to the third PDZ domain of PSD95” value [2]?
Answer: not to their third PDZ domains

Question: And the “binding to the second PDZ domain of SAP97” value [3]?
Answer: bind to the second PDZ domains

Question: With EKLSSIESDV-OH [NR2B] as the substance, how does the “interaction with the first PSD95 PDZ domain” value [4] read?
Answer: bind

Question: And the “interaction with the second PSD95 PDZ domain” value [5]?
Answer: bind

Question: What about the “interaction with the third PSD95 PDZ domain” value [6] of the same substance?
Answer: fail to interact

Question: What does the source list for “IADESDPAESMESLV> [compound 017, N-terminally biotinylated 15-mer proteomic fragment, SWISS-PROT P23470, receptor-type tyrosine protein phosphatase gamma]”?
Answer: binding to the second PDZ domain of PSD95 [1]: bind to the second PDZ domains; binding to the third PDZ domain of PSD95 [2]: not to their third PDZ domains; binding to the second PDZ domain of SAP97 [3]: bind to the second PDZ domains

Question: With KKMPSIESDV-OH [NR2A] as the substance, how does the “interaction with the first PSD95 PDZ domain” value [4] read?
Answer: bind

Question: And the “interaction with the second PSD95 PDZ domain” value [5]?
Answer: bind

Question: What about the “interaction with the third PSD95 PDZ domain” value [6] of the same substance?
Answer: fail to interact

Question: For TRGTKRSWYHSF> [compound 17], which “interaction with PSD95-PDZ3 in vitro” value [7] is on record?
Answer: interacts selectively and with reasonable affinity

Question: With TRGTKRSWYYSF> [compound 20] as the substance, how does the “interaction with PSD95-PDZ3 in vitro” value [7] read?
Answer: interacts selectively and with reasonable affinity

Question: With TSGTKRSWYHSF> [compound 18] as the substance, how does the “interaction with PSD95-PDZ3 in vitro” value [7] read?
Answer: interacts selectively and with reasonable affinity

Question: Which “interaction with PSD95-PDZ3 in vitro” value [7] does the source give for TTGKKRRWYHSF> [compound 19] here?
Answer: interacts selectively and with reasonable affinity

Question: Which “interaction with the first PSD95 PDZ domain” value [4] does the source give for VNIKKIFTDV-OH [Kv1.3] here?
Answer: bind

Question: And the “interaction with the second PSD95 PDZ domain” value [5]?
Answer: bind

Question: What about the “interaction with the third PSD95 PDZ domain” value [6] of the same substance?
Answer: fail to interact

Question: What does the source list for VNITKMLTDV-OH [Kv1.2]?
Answer: interaction with the first PSD95 PDZ domain [4]: bind; interaction with the second PSD95 PDZ domain [5]: bind; interaction with the third PSD95 PDZ domain [6]: fail to interact

Question: Which “interaction with the first PSD95 PDZ domain” value [4] does the source give for VNKSKLLTDV-OH [Kv1.1] here?
Answer: bind

Question: What about the “interaction with the second PSD95 PDZ domain” value [5] of the same substance?
Answer: bind

Question: And the “interaction with the third PSD95 PDZ domain” value [6]?
Answer: fail to interact
